These are literature values, as cited in patent US10894017B1 (XSPRAY PHARMA AB, priority 2019, dated 2021).

For data set [1] the following is noted: clinical bio-equivalence studies.
For data set [2] the following is noted: high permeability and low solubility.
For data set [3] the following is noted: within and between patients.

Take `CC(O)CO.Cc1nc(Nc2ncc(C(=O)Nc3c(C)cccc3Cl)s2)cc(N2CCN(CCO)CC2)n1` [1,2-propanediol solvate, dasatinib 1,2-propanediol solvate]: the “AUC compared to Sprycel” value in data set [1] is given as “higher AUC”.
As to `Cc1nc(Nc2ncc(C(=O)Nc3c(C)cccc3Cl)s2)cc(N2CCN(CCO)CC2)n1` [Dasatinib monohydrate], in data set [2], the BCS classification result is on record as “BCS II”.
`Cc1nc(Nc2ncc(C(=O)Nc3c(C)cccc3Cl)s2)cc(N2CCN(CCO)CC2)n1` [anhydrate form N-6]: the “AUC compared to Sprycel” value in data set [1] is “higher AUC”.
With `Cc1nc(Nc2ncc(C(=O)Nc3c(C)cccc3Cl)s2)cc(N2CCN(CCO)CC2)n1` [dasatinib], in data set [3], the “coefficient of variation of AUC” value is given as “up to 100%” and the “coefficient of variation of Cmax” value is reported as “up to 100%”.
